Assay: Stability of Tc-99m labeled compound by radioTLC
Assay type: physicochemical
Settings: for Eluent A / Eluent B: in % (unit assumed)
Protocol: (§1) After 2.0 mg of GP-104 was dissolved in 1.8 mL of water for injection and 0.2 mL of ethanol, the resulting solution was allowed to stand with a pH of about 5 at room temperature for 10 minutes when 20 μL of SnCl2 (15 mg/mL) and 2 mL of Tc-99m were added thereto, and the reaction was terminated by adjusting the pH to 7 using a NaOH solution. Stability up to 4 hours was confirmed by radioTLC under conditions of pH 5 and pH 7, respectively, and the results are summarized in the following Table 1. (TLC analysis conditions: iTLC was used, Eluent A: methyl ethyl ketone 100%, Eluent B: pyridine:acetic acid:purified water=3:5:15, and purity calculation: Eluent A−Eluent B)
as §1, with “ethanol, pH was adjusted to about 5 and” for “ethanol,”, “stand” for “stand with a pH of about 5”, “(15 mg/mL), 20 μL of cysteine (10” for “(15”, “Table 2.” for “Table 1.”
(§2) After 2.0 mg of GP-105 was dissolved in 1.8 mL of water for injection and 0.2 mL of ethanol, the pH was adjusted to about 5 and the resulting solution was allowed to stand at room temperature for 10 minutes when 20 μL of SnCl2 (15 mg/mL) and 2 mL of Tc-99m were added thereto, and the reaction was terminated by adjusting the pH to 7 using a NaOH solution. Stability until 4 hours under conditions of pH 5 and pH 7 was each confirmed by radioTLC. (TLC analysis conditions: iTLC was used, Eluent A: methyl ethyl ketone 100%, Eluent B: pyridine:acetic acid:purified water=3:5:15, and purity calculation: Eluent A−Eluent B)
as §2, with “ethanol,” for “ethanol, the”, “(15 mg/mL), 20 μL of cysteine (10” for “(15”

[1] = Ex 3-1, no cysteine, pH 5, 0 hour
[2] = Ex 3-1, no cysteine, pH 5, 0.5 hours
[3] = Ex 3-1, no cysteine, pH 5, 1.0 hour
[4] = Ex 3-1, no cysteine, pH 5, 1.5 hours
[5] = Ex 3-1, no cysteine, pH 5, 2.0 hours
[6] = Ex 3-1, no cysteine, pH 5, 3.0 hours
[7] = Ex 3-1, no cysteine, pH 5, 4.0 hours
[8] = Ex 3-1, no cysteine, pH 7, 0 hour
[9] = Ex 3-1, no cysteine, pH 7, 0.5 hours
[10] = Ex 3-1, no cysteine, pH 7, 1.0 hour
[11] = Ex 3-1, no cysteine, pH 7, 1.5 hours
[12] = Ex 3-1, no cysteine, pH 7, 2.0 hours
[13] = Ex 3-1, no cysteine, pH 7, 3.0 hours
[14] = Ex 3-1, no cysteine, pH 7, 4.0 hours
[15] = Ex 3-2, cysteine, pH 5, 0.5 hours
[16] = Ex 3-2, cysteine, pH 5, 1.0 hour
[17] = Ex 3-2, cysteine, pH 5, 1.5 hours
[18] = Ex 3-2, cysteine, pH 5, 2.0 hours
[19] = Ex 3-2, cysteine, pH 5, 3.0 hours
[20] = Ex 3-2, cysteine, pH 5, 4.0 hours
[21] = Ex 3-2, cysteine, pH 7, 0.5 hours
[22] = Ex 3-2, cysteine, pH 7, 1.0 hour
[23] = Ex 3-2, cysteine, pH 7, 1.5 hours
[24] = Ex 3-2, cysteine, pH 7, 2.0 hours
[25] = Ex 3-2, cysteine, pH 7, 3.0 hours
[26] = Ex 3-2, cysteine, pH 7, 4.0 hours

O=C(O)C[C@H](NC(=O)[C@@H]1CCCN(C(=O)CCC2CCNCC2)C1)c1cncc(OCCNC(=O)CN2CCN3CCN(CC(=O)O)CC(=O)[O][99Tc+]([O]C(=O)C3)[O]C(=O)C2)c1 [[Tc-99m]GP-104]
Purity [1]: 90.28%
Eluent A [1]: 95.7
Eluent B [1]: 5.42
Purity [2]: 91.36%
Eluent A [2]: 95.42
Eluent B [2]: 4.06
Purity [3]: 82.28%
Eluent A [3]: 98.43
Eluent B [3]: 16.15
Purity [4]: 72.79%
Eluent A [4]: 85.7
Eluent B [4]: 12.91
Purity [5]: 70.11%
Eluent A [5]: 91.79
Eluent B [5]: 21.68
Purity [6]: 67.71%
Eluent A [6]: 91.64
Eluent B [6]: 23.93
Purity [7]: 55.93%
Eluent A [7]: 80.48
Eluent B [7]: 24.55
Purity [8]: 90.59%
Eluent A [8]: 98.26
Eluent B [8]: 7.67
Purity [9]: 78.04%
Eluent A [9]: 92.82
Eluent B [9]: 14.78
Purity [10]: 78.31%
Eluent A [10]: 94.51
Eluent B [10]: 16.2
Purity [11]: 82.7%
Eluent A [11]: 96.11
Eluent B [11]: 13.41
Purity [12]: 76.61%
Eluent A [12]: 96.22
Eluent B [12]: 19.61
Purity [13]: 77.93%
Eluent A [13]: 87.58
Eluent B [13]: 9.65
Purity [14]: 54.14%
Eluent A [14]: 73.22
Eluent B [14]: 19.08
Purity (Ex 3-2, cysteine, pH 5, 0 hour): 85.97%
Eluent A (Ex 3-2, cysteine, pH 5, 0 hour): 89.51
Eluent B (Ex 3-2, cysteine, pH 5, 0 hour): 3.54
Purity [15]: 87.89%
Eluent A [15]: 93.51
Eluent B [15]: 5.62
Purity [16]: 90.39%
Eluent A [16]: 93.61
Eluent B [16]: 3.22
Purity [17]: 93.47%
Eluent A [17]: 95.55
Eluent B [17]: 2.08
Purity [18]: 82.97%
Eluent A [18]: 91.17
Eluent B [18]: 8.2
Purity [19]: 86.06%
Eluent A [19]: 89.61
Eluent B [19]: 3.55
Purity [20]: 87.56%
Eluent A [20]: 91.99
Eluent B [20]: 4.43
Purity (Ex 3-2, cysteine, pH 7, 0 hour): 96.94%
Eluent A (Ex 3-2, cysteine, pH 7, 0 hour): 100
Eluent B (Ex 3-2, cysteine, pH 7, 0 hour): 3.06
Purity [21]: 93.36%
Eluent A [21]: 98.3
Eluent B [21]: 4.94
Purity [22]: 96.35%
Eluent A [22]: 98.27
Eluent B [22]: 1.92
Purity [23]: 97.69%
Eluent A [23]: 100
Eluent B [23]: 2.31
Purity [24]: 97.12%
Eluent A [24]: 100
Eluent B [24]: 2.88
Purity [25]: 94.14%
Eluent A [25]: 100
Eluent B [25]: 5.86
Purity [26]: 95.76%
Eluent A [26]: 100
Eluent B [26]: 4.24
Purity (addition of cysteine, pH of 7, even after 4 hours (text to Table 2)): ≥ 90%
